Legend:
[1] = HPLC quantification of quercetin, rosmarinic acid and carnosic acid in BIOSAS lipid products; type: physicochemical; conditions: for amount dispersed in oil: rosemary BIOSAS dispersion
Source text: Carnosic acid and rosmarinic acid were identified and quantified in the case of BIOSAS rosemary samples following the procedures described by […]. Garcia-Risco, T. Fornari, G. Reglero, Isolation of carsonic acid from rosemary extracts using semi-preparative supercritical fluid chromatography, J. Chromatogr. A. 1286 (2013) 208-215. doi:10.1016/j.chroma.2013.02.044 using a HPLC Prominence-i LC-2030C 3D Plus (Shimadzu) equipped with a RP-C18 (250 × 4.6 mm; 3 μm) chromatography column. The mobile phase consisted of 0.1 % of phosphoric acid in water (solvent A) and acetonitrile (solvent B) applying the following gradient: 0-8 min, 77 % A, 8-25 min, 25 % A, 25-40 min 25 % A and the 40-45 min 77 % A. Initial conditions were gained in 5 min. The flow rate was constant at 0.7 ml/min. Injection volume was 20 μl and the detection was accomplished using a diode array detection system, storing the signal at a wavelength of 230, 280 and 350 nm. In the case of quercetin BIOSAS dispersion, HPLC analysis was carried out as previously described by Wei et al.. A Prominence-i LC-2030C 3D Plus (Shimadzu) equipped with a quaternary solvent delivery system, an autosampler and DAD detector and RP-C18 (250 × 4.6 mm; 3 μm) was used. The column temperature was set at 25 °C. The mobile phase consists of acetonitrile (A) and 0.026% aqueous H3PO4 (v/v), applying the following gradient elution: at 0-20 min, 20%-25% A, 20-30 min, 25%-34% A, 30-50 min, 34%-50% A, 50-60 min, 50%-60% A and 60-80 min, 60% A. After 5 min, the initial conditions were achieved. The flow rate was 0.7 ml/min and was kept constant during analysis. Injection volume was 20 μl and detection was accomplished at 254, 280 and 370 nm.

mice = conditions: intravenous administration; cited from earlier work

SMILES: CC(C)c1cc2c(c(O)c1O)[C@@]1(C(=O)O)CCCC(C)(C)[C@@H]1CC2 [carnosic acid, Carnosic acid]
- amount dispersed in oil ([1]; argan oil): 4.90 mg/g
- amount dispersed in oil ([1]; flaxseed oil): 6.39 mg/g

SMILES: O=C(/C=C/c1ccc(O)c(O)c1)O[C@H](Cc1ccc(O)c(O)c1)C(=O)O [rosmarinic acid]
- amount dispersed in oil ([1]; argan oil): ~0.40 mg/g
- amount dispersed in oil ([1]; flaxseed oil): 0.51 mg/g
- LD50 (mice): 561 mg/kg

SMILES: O=c1c(O)c(-c2ccc(O)c(O)c2)oc2cc(O)cc(O)c12 [quercetin, 2-(3,4-Dihydroxyphenyl)-3,5,7-trihydroxy-4H-1-benzopyran-4-one,3,3',4',5,6-Pentahydroxyflavone - Quercetin]
- concentration of quercetin in the flaxseed oil ([1]; HPLC analysis, BIOSAS 20 MPa, 313.15 K): 1.55 ± 0.05 % mass
- amount dispersed by BIOSAS process ([1]; in high molecular weight triacylglycerols (flaxseed oil), 313.15 K): > 15 mg/g
